In patent US20190142810A1, “MITOCHONDRIAL INHIBITORS FOR THE TREATMENT OF PROLIFERATION DISORDERS” (Basilea Pharmaceutica International AG, priority 2016, published 2019):

What was measured:
[1] = system: Oxygen consumption (mitochondrial function); assay: Oxygen consumption assay (MitoXpress probe); assay type: cell-based; settings: MitoXpress probe signal, kinetic analysis at 37° C. for 5 hours, compared to untreated cells
Text: Oxygen consumption is one of the most informative and direct measures of mitochondrial function and can be measured, for example, by using the MitoXpress® assay (Luxcel MX-2001, Luxcel Biosciences). The MitoXpress® probe is one of a family of phosphorescent oxygen sensitive probes. The assay exploits the ability of oxygen to quench the excited state of the MitoXpress® probe. As the test material respires (i.e. the cells), oxygen is depleted in the surrounding solution/environment, which increases the probe phosphorescence signal. Changes in oxygen consumption reflecting changes in mitochondrial activity are seen as changes in the MitoXpress® probe signal over time.
Cells were seeded in 96 well black plates with transparent bottoms (Greiner Bio-One cat. no. 655090) at a density of 50′000 cells/well in a final volume of 100 μL. After 24 hours the incubation media was removed and 150 μL of fresh media containing inhibitors at different concentrations was added to each well. Then, 10 μL of MitoXpress® and 150 μL mineral oil were added per well. Reading from the top of the plate, kinetic analysis was performed at 37° C. for 5 hours using a Synergy 4 plate reader (BioTek) and Time-resolved Fluoresence (TRF) wavelengths of 380/11 nm excitation and 650/20 nm emission or 665/40 emission (30 microsecond delay time, 100 microsecond integration time, gain or sensitivity settings set at either medium or high). IC50s were calculated as the concentration that inhibits 50% of the phosphorescent oxygen sensitive probe signal (MitoXpress®) as compared to untreated cells.

HeLa galactose cells = assay: Cell growth and proliferation assay of HeLa galactose cells (crystal violet); assay type: cell-based; settings: 72 hours incubation, crystal violet staining, absorbance at 590 nm
Description: The cervical tumor cell line HeLa (ATCC, CCL-2) was cultivated in DMEM medium (Invitrogen cat. no. 11971, 4.5 g/L high glucose) containing 10% fetal calf serum (Sigma cat. no. F9665) and 1% Penicillin/Streptomycin (Sigma cat. no. P0781) at 37° C. in 5% CO2. HeLa galactose cells (i.e. HeLa cells that grow in high concentrations of galactose) were generated from HeLa glucose cells (i.e. HeLa cells that grow in high concentrations of glucose) by gradually changing the amount of glucose in the media to zero glucose in the presence of galactose as a sugar source (50% galactose/50% glucose media for one week, then 75% galactose/25% glucose media for one week, to 100% galactose media in the third week). Galactose media (Invitrogen cat. no. 11966) was supplemented with 10 mM galactose (Sigma cat. no. G5388).
Cell Growth and Proliferation Assay of HeLa Galactose and Glucose Cells
HeLa galactose cells and HeLa glucose cells were seeded in 96 well plates (TPP, cat. no 92696) at 2000 and 1500 cells/well, respectively, in 100 μL of complete medium. After overnight incubation the cells were incubated for 72 hours in complete medium containing 0.001% DMSO or compounds (final concentration of DMSO 0.001%). After the medium was removed, cells were fixed and stained by adding 50 μL crystal violet staining (0.2% crystal violet (Sigma-Aldrich cat. no. C0775) in 50% methanol) per well. The plates were incubated for 1 hour at room temperature. Subsequently the stain was decanted and plates were washed 4 times with de-mineralized water. Plates were air-dried for 2 hours. The stain was dissolved by adding 100 μL buffer (0.1 M Tris pH 7.5, 0.2% SDS, 20% ethanol) per well and shaking the plates. Absorbance at 590 nm was measured using a SpectraMax® 250 plate reader (Molecular Devices). Antiproliferative/growth inhibition IC50s were calculated from concentration-response curves using GraphPad Prism software.

IC50 (HeLa galactose cells; Homo sapiens, HeLa, 72 h) [nM] | IC50 (HeLa galactose cells) [nM] | Structure (SMILES) | IC50 [1] [nM] | IC50 ([1]; 5 h) [nM]
47 |  | Cc1nsc(NC(=O)N2CCC(Cc3ccc(Cl)cc3F)C(C)C2)n1 (single isomer, unassigned) [Example 84a, 4-[(4-chloro-2-fluoro-phenyl)methyl]-3-methyl-N-(3-methyl-1,2,4-thiadiazol-5-yl)piperidine-1-carboxamide] | 57 | 
 | 75 | Cc1nsc(NC(=O)N2CCC(Cc3ccc(Cl)cc3F)C(C)C2)n1 (single isomer, unassigned) [Example 84b, 4-[(4-chloro-2-fluoro-phenyl)methyl]-3-methyl-N-(3-methyl-1,2,4-thiadiazol-5-yl)piperidine-1-carboxamide] | 121 | 
162 |  | CCc1ccc(CC2CCN(C(=O)Nc3nc(C)ns3)CC2)cc1 [Example 17] |  | 243
637 |  | Cc1ccc(OC2CCN(C(=O)Nc3nc(C)ns3)CC2)cc1 [Example 18] |  | 515
266 |  | Cc1nsc(NC(=O)N2CCC(Oc3ccc(Cl)cc3)CC2)n1 [Example 19, 4-(4-chlorophenoxy)-N-(3-methyl-1,2,4-thiadiazol-5-yl)piperidine-1-carboxamide] |  | 488
122 |  | Cc1nsc(NC(=O)N2CCC(Oc3ccc(Cl)cc3Cl)CC2)n1 [Example 20] |  | 369
207 |  | Cc1nsc(NC(=O)N2CCC(=Cc3ccc(Cl)cc3Cl)CC2)n1 [Example 21] |  | 208
138 |  | Cc1nsc(NC(=O)N2CCC(Cc3ccc(Cl)cc3N)CC2)n1 [Example 24] |  | 307
18 |  | Cc1nsc(NC(=O)N2CCC(Cc3c(F)cc(Cl)cc3F)CC2)n1 [Example 25, 4-[(4-chloro-2,6-difluoro-phenyl)methyl]-N-(3-methyl-1,2,4-thiadiazol-5-yl)piperidine-1-carboxamide] |  | 55
15 |  | Cc1nsc(NC(=O)N2CCC(=Cc3c(F)cc(Cl)cc3F)CC2)n1 [Example 26, 4-[(4-chloro-2,6-difluoro-phenyl)methylene]-N-(3-methyl-1,2,4-thiadiazol-5-yl)piperidine-1-carboxamide] |  | 23
59 |  | Cc1ccc(CC2CCN(C(=O)Nc3nc(C)ns3)CC2)c(F)c1 [Example 27, 4-[(2-fluoro-4-methyl-phenyl)methyl]-N-(3-methyl-1,2,4-thiadiazol-5-yl)piperidine-1-carboxamide] |  | 83
249 |  | Cc1nsc(NC(=O)N2CCC(Cc3ccc(C)c(C)c3)CC2)n1 [Example 28, 4-[(3,4-dimethylphenyl)methyl]-N-(3-methyl-1,2,4-thiadiazol-5-yl)piperidine-1-carboxamide] |  | 334
256 |  | Cc1nsc(NC(=O)N2CCC(Cc3ccc(C)c(F)c3)CC2)n1 [Example 29] |  | 205
59 |  | COc1ccc(CC2CCN(C(=O)Nc3nc(C)ns3)CC2)c(F)c1 [Example 30] |  | 178
43 |  | Cc1nsc(NC(=O)N2CCC(Cc3ccc(C#N)cc3F)CC2)n1 [Example 32] |  | 116
70 |  | Cc1nsc(NC(=O)N2CCC(Cc3ccc(C(F)(F)F)cc3F)CC2)n1 [Example 33] |  | 102
240 |  | Cc1nsc(NC(=O)N2CCC(Cc3ccc(-c4noc(C)n4)cc3F)CC2)n1 [Example 35, 4-[[2-fluoro-4-(5-methyl-1,2,4-oxadiazol-3-yl)phenyl]methyl]-N-(3-methyl-1,2,4-thiadiazol-5-yl)piperidine-1-carboxamide] |  | 473
61 |  | Cc1nsc(NC(=O)N2CCC(=Cc3ccc(C(F)(F)F)cc3F)CC2)n1 [Example 38] |  | 131
38 |  | Cc1nsc(NC(=O)N2CCC(=Cc3ccc(Cl)cc3F)CC2)n1 [Example 39, 4-[(4-chloro-2-fluoro-phenyl)methylene]-N-(3-methyl-1,2,4-thiadiazol-5-yl)piperidine-1-carboxamide] |  | 69
32 |  | Cc1nsc(NC(=O)N2CCC(Cc3c(F)cc(C(F)(F)F)cc3F)CC2)n1 [Example 40, 4-[[2,6-difluoro-4-(trifluoromethyl)phenyl]methyl]-N-(3-methyl-1,2,4-thiadiazol-5-yl)piperidine-1-carboxamide] |  | 48
96 |  | O=C(Nc1ccnc(CO)c1)N1CCC(=Cc2ccc(Cl)cc2F)CC1 [Example 177, 4-[(4-chloro-2-fluoro-phenyl)methylene]-N-[2-(hydroxymethyl)-4-pyridyl]piperidine-1-carboxamide] |  | 
155 |  | N#CCc1cc(NC(=O)N2CCC(=Cc3ccc(Cl)cc3F)CC2)ccn1 [Example 178, 4-[(4-chloro-2-fluoro-phenyl)methylene]-N-[2-(cyanomethyl)-4-pyridyl]piperidine-1-carboxamide] |  | 
330 |  | NCc1cc(NC(=O)N2CCC(=Cc3c(F)cc(Cl)cc3F)CC2)ccn1 [Example 180, N-[2-(aminomethyl)-4-pyridyl]-4-[(4-chloro-2,6-difluoro-phenyl)methylene]piperidine-1-carboxamide] |  | 

Further lines, the compound ahead of its results:

Structure (SMILES) | IC50 (HeLa galactose cells; Homo sapiens, HeLa, 72 h) [nM] | IC50 (HeLa galactose cells) [nM] | IC50 [1] [nM] | IC50 ([1]; 5 h) [nM]
Cc1nsc(NC(=O)N2CCC(Cc3ccc(F)cc3)CC2)n1 [Example 1, 1-Piperidinecarboxamide, 4-[(4-fluorophenyl)methyl]-N-(3-methyl-1,2,4-thiadiazol-5-yl)-] | 161 |  |  | 193
Cc1nsc(NC(=O)N2CCC(Cc3ccc(Cl)cc3)CC2)n1 [Example 2] | 41 |  |  | < 100
COc1ccc(CC2CCN(C(=O)Nc3nc(C)ns3)CC2)cc1 [Example 3] | 80 |  |  | < 100
Cc1nsc(NC(=O)N2CCC(Cc3ccc(N)cc3)CC2)n1 [Example 4, 4-[(4-aminophenyl)methyl]-N-(3-methyl-1,2,4-thiadiazol-5-yl)piperidine-1-carboxamide] | 460 |  |  | 400
Cc1ccc(CC2CCN(C(=O)Nc3nc(C)ns3)CC2)cc1 [Example 5] | 36 |  |  | 100
COCc1ccc(CC2CCN(C(=O)Nc3nc(C)ns3)CC2)cc1 [Example 6] | 31 |  |  | 200
Cc1ccc(SC2CCN(C(=O)Nc3nc(C)ns3)CC2)cc1 [Example 7, N-(3-methyl-1,2,4-thiadiazol-5-yl)-4-(p-tolylsulfanyl)piperidine-1-carboxamide] | 142 |  |  | 500
Cc1nsc(NC(=O)N2CCC(Cc3ccc(Cl)cc3Cl)CC2)n1 [Example 8] | 32 |  |  | 200
Cc1nsc(NC(=O)N2CCC(Cc3ccc(Cl)cc3F)CC2)n1 [Example 9] | 36 |  |  | < 100
Cc1nsc(NC(=O)N2CCC(Cc3ccc(C(F)(F)F)cc3)CC2)n1 [Example 10] | 36 |  |  | 200
Cc1nsc(NC(=O)N2CCC(Cc3ccc(C(C)(C)C)cc3)CC2)n1 [Example 11] | 193 |  |  | 1300
Cc1ccc(CC2CCN(C(=O)Nc3nc(C)ns3)CC2)c(C)c1 [Example 12] | 19 |  |  | 500
COc1ccc(CC2CCN(C(=O)Nc3nc(C)ns3)CC2)c(C)c1 [Example 13, 4-[(4-methoxy-2-methyl-phenyl)methyl]-N-(3-methyl-1,2,4-thiadiazol-5-yl)piperidine-1-carboxamide] | 307 |  |  | 345
Cc1nsc(NC(=O)N2CCC(Cc3ccc(Cl)cc3C)CC2)n1 [Example 14] | 146 |  |  | 200
Cc1ccc(CC2CCN(C(=O)Nc3nc(C)ns3)CC2)nc1 [Example 15] | 267 |  |  | 412
Cc1nsc(NC(=O)N2CCC(Cc3ccc(C(C)C)cc3)CC2)n1 [Example 16] | 260 |  |  | 326
